Measured values published in patent publication US20250320496A1, “MODULATION OF ABCB11 GENE TRANSCRIPTION USING ANTISENSE OLIGONUCLEOTIDES TARGETING REGULATORY RNAS” (CAMP4 Therapeutics Corporation, priority 2022, published 2025).
Strand notation (5' to 3'): a small letter for the sugar, then the base; units joined by * are phosphorothioate-linked, units joined directly phosphodiester-linked; [ ] holds rarer units or linkages, { } end groups; capitals alone tell only the bases. e = 2'-O-(2-methoxyethyl) (MOE); l = locked nucleic acid (LNA); [5mC] = 5-methylcytosine; d = 2'-deoxy (DNA)

Test system: human ABCB11 mRNA
Test: ASO treatment of primary human hepatocytes (PHH), ABCB11 mRNA by RT-qPCR normalized to B2M
Format: cell-based
Settings: primary human hepatocytes; for ABCB11 mRNA FC (5 μM ASO vs. UNT): normalized to untreated PHHs (UNT)
Method in brief: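 Plated primary human hepatocytes were treated 4 h post-thaw with ASO (e.g., 1.25–10 μM; initial screen 5 μM) in medium containing 0.3 mg/ml Matrigel for 72 hrs. Total RNA was reverse-transcribed and ABCB11 mRNA measured by Taqman RT-qPCR, normalized to B2M, with fold change versus untreated PHHs.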

Substance | ABCB11 mRNA FC (5 μM ASO vs. UNT) | ABCB11 FC mRNA (5 μM ASO vs. untreated) (5 μM ASO with PO-modifications, normalized to untreated hepatocytes)
CO-7209 (eT*eT*eT*eG*eG*d[5mC]*dG*eT*dT*dA*eT*dT*dA*eA*dT*dT*e[5mC]*dT*dA*e[5mC]*eA*eG*eA*eG; antisense) | 1.262 fold change | –
CO-7067 (eT*e[5mC]*eT*eG*lG*eA*eA*eA*eA*lT*eA*eA*eT*eG*l[5mC]*e[5mC]*eT*eT*eT*e[5mC]; antisense) | 1.081 fold change | –
CO-7091 (eA*e[5mC]*e[5mC]*l[5mC]*e[5mC]*l[5mC]*e[5mC]*lT*e[5mC]*lA*e[5mC]*l[5mC]*eT*lT*eG*lG*eT*lT*e[5mC]*e[5mC]; antisense) | 1.164 fold change | –
CO-7003 (antisense eG*eT*eG*eA*eG*lG*e[5mC]*eA*eT*e[5mC]*lA*eG*eG*eT*eA*lA*eG*eT*eT*e[5mC]) | 1.066 fold change | –
CO-7017 (antisense eA*eA*eG*eT*eG*eA*eG*dG*d[5mC]*dA*dT*d[5mC]*dA*dG*dG*dT*dA*eA*eG*eT*eT*e[5mC]*e[5mC]*eT) | 1.182 fold change | –
CO-7033 (antisense eG*eA*eG*eA*e[5mC]*eA*eA*eA*eG*eA*eA*eT*e[5mC]*eG*e[5mC]*eT*eG*eT*eG*eG) | 1.316 fold change | –
CO-4045 (antisense eA*e[5mC]*eT*eT*eT*eT*e[5mC]*eA*e[5mC]*eA*eA*e[5mC]*eT*eA*e[5mC]*eA*eG*eG*e[5mC]*e[5mC]) | 0.815 fold change | –
CO-6669 (antisense eG*eT*eT*eT*eA*eG*eT*eT*eG*eA*e[5mC]*eT*eG*e[5mC]*eA*eG*eA*eG*eG*eG) | 1.291 fold change | –
CO-7102 (eT*eA*eT*e[5mC]*eT*eG*eG*dA*dA*dA*dA*dT*dA*dA*dT*dG*d[5mC]*e[5mC]*eT*eT*eT*e[5mC]*eT*eA; antisense) | 1.068 fold change | –
CO-4044 (antisense eG*eT*eT*eG*eG*eG*eA*eT*eA*eG*e[5mC]*e[5mC]*eT*eG*eA*eA*eT*eT*e[5mC]*e[5mC]) | 0.974 fold change | –
CO-4503 (antisense eA*eT*eT*eG*eT*eA*eG*eG*eT*eG*e[5mC]eT*eG*e[5mC]*eG*eG*eG*eT*eA*eT) | 1.202 fold change | –
CO-11234 (antisense eG*eT*eG*eG*lAeGe[5mC]*eA*eA*lA*e[5mC]*eT*eA*eGlGe[5mC]*eA*e[5mC]*eT*eG) | – | 1.55 fold change
CO-4485 (antisense eG*eT*e[5mC]*eA*eA*eG*eA*eT*e[5mC]*e[5mC]*e[5mC]*e[5mC]*eG*eA*eA*eG*eT*eT*eG*eA) | 1.194 fold change | –
CO-6985 (antisense eT*eG*eG*eA*eT*lG*dT*dA*lG*dA*dT*lG*dA*dA*lT*eG*eG*e[5mC]*eA*eA) | 1.414 fold change | –
CO-4505 (antisense eG*eA*eG*e[5mC]*eA*e[5mC]*eA*e[5mC]*eA*eT*eT*e[5mC]*eA*e[5mC]*eT*e[5mC]*e[5mC]*eA*eT*eT) | 1.011 fold change | –
CO-7160 (antisense eT*eG*eT*eG*eG*eA*eG*eG*eT*eG*eG*eA*eG*e[5mC]*eA*eA*eA*e[5mC]*eT*eA) | 1.312 fold change | –
CO-7041 (antisense eG*eT*e[5mC]*eA*eA*eG*eA*eGeG*eA*eA*eA*eG*eA*eA*e[5mC]*eT*eG*eG*e[5mC]) | 1.15 fold change | –
